Assay results from article PMC5355060, “Preclinical pharmacodynamic evaluation of drug candidate SKLB-178 in the treatment of non-small cell lung cancer” (Oncotarget, 2017).

Assays:
Assay type in all cases: biochemical
[1] = target: T1, PDGFRα (Homo sapiens, UniProt P16234); assay: […] radiolabeled kinase assay, single dose […]
T1 construct: gene PDGFRA

[2] = target: EGFR (Homo sapiens, UniProt P00533); assay: […] radiolabeled kinase assay (Millipore KinaseProfiler)
[3] = target: Src (Homo sapiens, UniProt P12931); assay: as above
[4] = target: ErbB4 (Homo sapiens, UniProt Q15303); assay: […] radiolabeled kinase assay, single dose […]
Chain of ErbB4 (Q15303 26-1308): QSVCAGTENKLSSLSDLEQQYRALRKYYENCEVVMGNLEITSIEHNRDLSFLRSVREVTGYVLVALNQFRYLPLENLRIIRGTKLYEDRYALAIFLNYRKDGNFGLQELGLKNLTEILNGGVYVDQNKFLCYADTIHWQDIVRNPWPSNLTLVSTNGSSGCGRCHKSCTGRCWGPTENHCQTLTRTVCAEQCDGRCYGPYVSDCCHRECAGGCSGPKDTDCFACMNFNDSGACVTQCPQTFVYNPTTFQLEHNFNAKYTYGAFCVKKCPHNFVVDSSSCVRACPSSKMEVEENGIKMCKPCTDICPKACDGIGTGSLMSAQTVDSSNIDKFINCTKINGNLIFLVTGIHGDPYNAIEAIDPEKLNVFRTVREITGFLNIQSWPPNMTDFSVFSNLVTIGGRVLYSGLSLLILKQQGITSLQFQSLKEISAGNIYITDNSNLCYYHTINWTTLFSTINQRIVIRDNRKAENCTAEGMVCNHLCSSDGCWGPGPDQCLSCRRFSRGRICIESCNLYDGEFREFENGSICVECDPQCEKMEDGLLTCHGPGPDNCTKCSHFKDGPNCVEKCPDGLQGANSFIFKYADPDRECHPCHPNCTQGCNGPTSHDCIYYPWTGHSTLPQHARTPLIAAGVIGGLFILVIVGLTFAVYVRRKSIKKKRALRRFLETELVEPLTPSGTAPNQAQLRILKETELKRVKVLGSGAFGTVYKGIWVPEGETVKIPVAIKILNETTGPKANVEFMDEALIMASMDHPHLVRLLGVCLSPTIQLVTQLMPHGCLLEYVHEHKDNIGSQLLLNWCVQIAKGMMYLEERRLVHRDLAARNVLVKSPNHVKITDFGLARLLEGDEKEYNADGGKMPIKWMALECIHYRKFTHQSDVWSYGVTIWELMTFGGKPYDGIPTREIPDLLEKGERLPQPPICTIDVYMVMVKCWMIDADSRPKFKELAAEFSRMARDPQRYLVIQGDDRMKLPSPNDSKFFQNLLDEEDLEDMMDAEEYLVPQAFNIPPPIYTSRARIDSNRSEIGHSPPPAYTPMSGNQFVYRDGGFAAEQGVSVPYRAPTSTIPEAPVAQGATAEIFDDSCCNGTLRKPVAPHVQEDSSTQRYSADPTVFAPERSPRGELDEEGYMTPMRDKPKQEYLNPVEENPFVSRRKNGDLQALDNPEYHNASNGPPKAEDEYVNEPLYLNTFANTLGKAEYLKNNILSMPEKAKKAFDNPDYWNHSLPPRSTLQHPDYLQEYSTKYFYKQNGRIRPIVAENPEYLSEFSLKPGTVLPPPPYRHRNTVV

[5] = target: MET (Homo sapiens, UniProt P08581); assay: […] radiolabeled kinase assay, single dose […]
Chain of MET (P08581 25-307): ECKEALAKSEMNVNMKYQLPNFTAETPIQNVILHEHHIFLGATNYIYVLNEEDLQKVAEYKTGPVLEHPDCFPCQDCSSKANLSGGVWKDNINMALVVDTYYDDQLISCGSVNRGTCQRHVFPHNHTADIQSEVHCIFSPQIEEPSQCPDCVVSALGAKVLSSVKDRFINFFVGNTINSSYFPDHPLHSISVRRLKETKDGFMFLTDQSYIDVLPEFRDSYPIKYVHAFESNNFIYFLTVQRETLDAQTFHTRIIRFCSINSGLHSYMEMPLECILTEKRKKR
Chain of MET (P08581 308-1390): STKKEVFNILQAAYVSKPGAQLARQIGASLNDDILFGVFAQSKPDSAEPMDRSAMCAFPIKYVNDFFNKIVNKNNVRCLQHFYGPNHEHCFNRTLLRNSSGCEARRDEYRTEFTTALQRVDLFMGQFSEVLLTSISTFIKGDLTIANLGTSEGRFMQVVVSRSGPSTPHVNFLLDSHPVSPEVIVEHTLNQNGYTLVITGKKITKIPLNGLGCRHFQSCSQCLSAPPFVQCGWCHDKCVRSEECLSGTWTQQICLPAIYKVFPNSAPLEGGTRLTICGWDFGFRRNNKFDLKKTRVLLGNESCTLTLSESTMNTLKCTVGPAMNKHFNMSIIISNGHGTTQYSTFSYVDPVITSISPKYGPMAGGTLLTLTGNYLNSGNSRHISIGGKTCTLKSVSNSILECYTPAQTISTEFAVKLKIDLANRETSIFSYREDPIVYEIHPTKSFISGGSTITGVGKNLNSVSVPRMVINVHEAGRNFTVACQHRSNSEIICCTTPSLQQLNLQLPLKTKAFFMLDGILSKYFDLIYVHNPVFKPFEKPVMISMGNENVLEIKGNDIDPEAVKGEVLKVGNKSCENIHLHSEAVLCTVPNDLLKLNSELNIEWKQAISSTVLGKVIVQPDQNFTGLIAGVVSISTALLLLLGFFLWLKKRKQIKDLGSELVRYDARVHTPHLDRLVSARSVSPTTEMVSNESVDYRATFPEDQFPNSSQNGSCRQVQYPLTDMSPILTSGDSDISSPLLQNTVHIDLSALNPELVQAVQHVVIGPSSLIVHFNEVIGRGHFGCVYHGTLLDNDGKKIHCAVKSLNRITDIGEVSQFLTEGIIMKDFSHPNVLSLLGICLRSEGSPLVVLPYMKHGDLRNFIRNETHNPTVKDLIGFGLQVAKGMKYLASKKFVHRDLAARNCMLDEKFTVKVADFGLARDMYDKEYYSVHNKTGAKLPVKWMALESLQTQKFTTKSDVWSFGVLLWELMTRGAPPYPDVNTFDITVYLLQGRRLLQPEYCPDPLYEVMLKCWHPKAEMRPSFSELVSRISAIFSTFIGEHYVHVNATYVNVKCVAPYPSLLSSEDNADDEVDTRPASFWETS

[6] = target: KDR (VEGFR2) (Homo sapiens, UniProt P35968); assay: […] radiolabeled kinase assay (Millipore KinaseProfiler)
Chain of KDR (VEGFR2) (P35968 20-1356): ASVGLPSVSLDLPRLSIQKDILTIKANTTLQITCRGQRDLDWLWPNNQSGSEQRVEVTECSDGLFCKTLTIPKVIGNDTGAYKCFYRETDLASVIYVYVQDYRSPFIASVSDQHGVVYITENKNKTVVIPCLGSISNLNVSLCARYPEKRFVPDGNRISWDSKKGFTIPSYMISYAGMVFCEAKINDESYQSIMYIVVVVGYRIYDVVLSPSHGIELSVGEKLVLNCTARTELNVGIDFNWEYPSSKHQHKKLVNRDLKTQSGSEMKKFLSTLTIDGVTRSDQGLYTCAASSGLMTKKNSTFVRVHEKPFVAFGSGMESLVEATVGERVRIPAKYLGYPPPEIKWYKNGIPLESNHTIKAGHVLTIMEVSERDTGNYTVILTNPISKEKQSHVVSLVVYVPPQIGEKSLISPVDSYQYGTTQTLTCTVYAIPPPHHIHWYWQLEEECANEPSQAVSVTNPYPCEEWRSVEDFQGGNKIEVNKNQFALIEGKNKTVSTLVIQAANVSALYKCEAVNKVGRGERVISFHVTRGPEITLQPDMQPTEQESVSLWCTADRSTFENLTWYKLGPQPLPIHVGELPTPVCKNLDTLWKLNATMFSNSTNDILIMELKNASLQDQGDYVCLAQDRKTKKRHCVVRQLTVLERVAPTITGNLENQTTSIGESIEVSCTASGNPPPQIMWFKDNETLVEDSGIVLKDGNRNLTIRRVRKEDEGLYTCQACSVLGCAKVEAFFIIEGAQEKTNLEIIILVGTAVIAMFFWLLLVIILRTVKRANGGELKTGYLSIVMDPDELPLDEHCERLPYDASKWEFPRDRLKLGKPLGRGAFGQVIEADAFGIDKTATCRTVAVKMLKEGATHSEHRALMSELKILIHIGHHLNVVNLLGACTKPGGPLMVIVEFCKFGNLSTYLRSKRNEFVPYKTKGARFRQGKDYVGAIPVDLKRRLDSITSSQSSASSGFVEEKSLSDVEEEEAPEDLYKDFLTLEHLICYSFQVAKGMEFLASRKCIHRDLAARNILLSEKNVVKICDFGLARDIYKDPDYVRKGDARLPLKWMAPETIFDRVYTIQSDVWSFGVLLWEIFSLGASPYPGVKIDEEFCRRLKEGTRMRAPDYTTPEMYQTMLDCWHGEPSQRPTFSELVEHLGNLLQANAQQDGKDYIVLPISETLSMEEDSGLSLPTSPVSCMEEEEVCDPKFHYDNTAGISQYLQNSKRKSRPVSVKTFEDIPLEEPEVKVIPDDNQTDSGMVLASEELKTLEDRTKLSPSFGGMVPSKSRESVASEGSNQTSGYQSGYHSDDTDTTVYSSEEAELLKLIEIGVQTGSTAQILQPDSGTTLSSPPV

[7] = target: EGFR L858R/T790M (Homo sapiens, UniProt P00533, T790M/L858R); assay: as above
Chain of EGFR L858R/T790M (P00533 669-1210 T790M/L858R limits assumed): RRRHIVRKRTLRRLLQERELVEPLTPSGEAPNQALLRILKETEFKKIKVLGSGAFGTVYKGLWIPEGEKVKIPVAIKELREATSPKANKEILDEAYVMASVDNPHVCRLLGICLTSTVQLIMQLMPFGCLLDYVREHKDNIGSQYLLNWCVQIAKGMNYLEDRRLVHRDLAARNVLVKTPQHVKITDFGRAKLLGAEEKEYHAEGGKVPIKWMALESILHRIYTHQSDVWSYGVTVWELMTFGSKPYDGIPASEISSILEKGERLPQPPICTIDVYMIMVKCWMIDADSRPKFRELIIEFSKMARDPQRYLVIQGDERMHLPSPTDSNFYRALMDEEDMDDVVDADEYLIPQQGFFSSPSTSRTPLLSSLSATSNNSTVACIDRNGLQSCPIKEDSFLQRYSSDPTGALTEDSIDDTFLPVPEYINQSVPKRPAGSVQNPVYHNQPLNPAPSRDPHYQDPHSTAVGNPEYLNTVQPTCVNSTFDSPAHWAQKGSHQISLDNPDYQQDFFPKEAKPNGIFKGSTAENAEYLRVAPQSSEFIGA

[8] = target: EGFR L858R (Homo sapiens, UniProt P00533, L858R); assay: as above
Chain of EGFR L858R (P00533 668-1210 L858R limits assumed): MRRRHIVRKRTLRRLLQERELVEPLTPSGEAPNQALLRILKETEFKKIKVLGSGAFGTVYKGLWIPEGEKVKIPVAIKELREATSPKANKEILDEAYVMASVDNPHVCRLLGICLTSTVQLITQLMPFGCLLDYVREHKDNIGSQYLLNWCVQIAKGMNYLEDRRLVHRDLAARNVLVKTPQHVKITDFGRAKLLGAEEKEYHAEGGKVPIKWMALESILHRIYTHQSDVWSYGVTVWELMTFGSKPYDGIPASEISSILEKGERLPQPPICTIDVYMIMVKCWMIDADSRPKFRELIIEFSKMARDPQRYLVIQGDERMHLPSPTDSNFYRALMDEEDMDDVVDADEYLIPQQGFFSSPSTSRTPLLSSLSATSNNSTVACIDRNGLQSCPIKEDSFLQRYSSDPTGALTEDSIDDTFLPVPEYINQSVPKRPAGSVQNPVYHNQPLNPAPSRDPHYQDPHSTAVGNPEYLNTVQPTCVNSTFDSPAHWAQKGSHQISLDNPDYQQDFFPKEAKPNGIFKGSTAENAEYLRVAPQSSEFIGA

- inhibition at 1 µM [1]: 58%
- 33P radiolabeled kinase assay (Millipore KinaseProfiler) [2]: completely inhibited at 10 μM or 1 μM
- 33P radiolabeled kinase assay (Millipore KinaseProfiler) [3]: completely inhibited at 10 μM or 1 μM
- inhibition at 1 µM [4]: 100%
- inhibition at 10 µM [5]: 88%
- 33P radiolabeled kinase assay (Millipore KinaseProfiler) [6]: completely inhibited at 10 μM or 1 μM
- 33P radiolabeled kinase assay (Millipore KinaseProfiler) [7]: completely inhibited at 10 μM or 1 μM
- 33P radiolabeled kinase assay (Millipore KinaseProfiler) [8]: completely inhibited at 10 μM or 1 μM
Compound: CN1CCN(c2ccc(Nc3ncc4nc(Nc5ccc(Br)cc5)n(C5CCCC5)c4n3)cc2)CC1 [SKLB-178]
